Test system: MV-4-11 cells
Assay: Gene expression microarray analysis (Affymetrix PrimeView) and GSEA
Assay type: cell-based, human
Parameters: RFU PODN (11730768_x_at) / Fold change /veh PODN (11730768_x_at) / RFU LINC00158 (11744669_a_at) / Fold change /veh LINC00158 (11744669_a_at) / RFU DUSP10 (11751237_a_at) / Fold change /veh DUSP10 (11751237_a_at) / RFU ID3 (11757404_x_at) / Fold change /veh ID3 (11757404_x_at) / RFU PLEKHG5 (11737974_s_at) / Fold change /veh PLEKHG5 (11737974_s_at) / RFU LRRC4B (11730491_at) / Fold change /veh LRRC4B (11730491_at) / RFU GIMAP4 (11747438_a_at) / Fold change /veh GIMAP4 (11747438_a_at) / RFU KRT8 (11758183_x_at) / Fold change /veh KRT8 (11758183_x_at) / RFU CNN1 (11734310_a_at) / Fold change /veh CNN1 (11734310_a_at) / RFU VPS37D (11726825_at) / Fold change /veh VPS37D (11726825_at) / RFU C10orf10 (11716522_x_at) / Fold change /veh C10orf10 (11716522_x_at) / RFU KIR2DL2 /// KIR2DL4 /// KIR2DL5A /// KIR2DL5B /// KIR2DS1 /// KIR2DS2 /// KIR2DS3 /// KIR2DS4 /// KIR3DL3 /// KIR3DL3 /// KIR3DS1 (11738374_at) / Fold change /veh KIR2DL2 /// KIR2DL4 /// KIR2DL5A /// KIR2DL5B /// KIR2DS1 /// KIR2DS2 /// KIR2DS3 /// KIR2DS4 /// KIR3DL3 /// KIR3DL3 /// KIR3DS1 (11738374_at) / RFU C1QL1 (11718748_at) / Fold change /veh C1QL1 (11718748_at) / RFU TMPRSS4 (11747572_a_at) / Fold change /veh TMPRSS4 (11747572_a_at) / RFU HAMP (11756126_x_at) / Fold change /veh HAMP (11756126_x_at) / RFU RNFT2 (11725882_a_at) / Fold change /veh RNFT2 (11725882_a_at) / RFU NR4A2 (11747474_a_at) / Fold change /veh NR4A2 (11747474_a_at) / RFU ABCC12 (11746883_a_at) / Fold change /veh ABCC12 (11746883_a_at) / RFU TMEM136 (11760407_x_at) / Fold change /veh TMEM136 (11760407_x_at) / RFU CLDN22 /// WWC2 (11732394_at) / Fold change /veh CLDN22 /// WWC2 (11732394_at) / RFU HLA-DPB1 (11760878_x_at) / Fold change /veh HLA-DPB1 (11760878_x_at) / RFU SPINT1 (11716480_a_at) / Fold change /veh SPINT1 (11716480_a_at) / RFU GAP43 (11754022_s_at) / Fold change /veh GAP43 (11754022_s_at) / RFU A4GNT (11735810_at) / Fold change /veh A4GNT (11735810_at) / RFU PRB3 (11715151_x_at) / Fold change /veh PRB3 (11715151_x_at) / RFU TUBB4B (11761932_at) / Fold change /veh TUBB4B (11761932_at) / RFU CAPN14 (11732068_a_at) / Fold change /veh CAPN14 (11732068_a_at) / RFU TMCC2 (11721928_a_at) / Fold change /veh TMCC2 (11721928_a_at) / RFU IRGQ (11745062_a_at) / Fold change /veh IRGQ (11745062_a_at) / RFU FAM174B (11720279_a_at) / Fold change /veh FAM174B (11720279_a_at) / RFU TMPRSS4 (11748680_a_at) / Fold change /veh TMPRSS4 (11748680_a_at) / RFU FAM212B (11763350_a_at) / Fold change /veh FAM212B (11763350_a_at) / RFU PLEKHG5 (11743358_a_at) / Fold change /veh PLEKHG5 (11743358_a_at) / RFU ZSCAN30 (11745921_a_at) / Fold change /veh ZSCAN30 (11745921_a_at) / RFU CMKLR1 (11741424_a_at) / Fold change /veh CMKLR1 (11741424_a_at) / RFU LOC101060620 /// MAPK8IP1 (11723275_at) / Fold change /veh LOC101060620 /// MAPK8IP1 (11723275_at) / RFU SPTSSB (11747773_x_at) / Fold change /veh SPTSSB (11747773_x_at) / RFU PRSS12 (11739890_at) / Fold change /veh PRSS12 (11739890_at) / RFU BIN1 (11741810_x_at) / Fold change /veh BIN1 (11741810_x_at) / RFU WNT11 (11732464_a_at) / Fold change /veh WNT11 (11732464_a_at) / RFU C10orf10 (11716521_a_at) / Fold change /veh C10orf10 (11716521_a_at) / RFU C5orf56 (11738089_at) / Fold change /veh C5orf56 (11738089_at) / RFU CYB561 (11721691_x_at) / Fold change /veh CYB561 (11721691_x_at) / RFU ANKRD19P (11752326_a_at) / Fold change /veh ANKRD19P (11752326_a_at) / RFU OR2T12 /// OR2T33 /// OR2T8 (11738714_s_at) / Fold change /veh OR2T12 /// OR2T33 /// OR2T8 (11738714_s_at) / RFU VCAN (11748164_a_at) / Fold change /veh VCAN (11748164_a_at) / RFU JSRP1 (11732532_at) / Fold change /veh JSRP1 (11732532_at) / RFU KRTAP10-11 (11738290_x_at) / Fold change /veh KRTAP10-11 (11738290_x_at) / RFU MYO3A (11730013_a_at) / Fold change /veh MYO3A (11730013_a_at) / RFU EBF3 (11725865_a_at) / Fold change /veh EBF3 (11725865_a_at) / RFU CAMK2N1 (11719241_x_at) / Fold change /veh CAMK2N1 (11719241_x_at) / RFU C5orf56 (11738088_a_at) / Fold change /veh C5orf56 (11738088_a_at) / RFU OLFML3 (11715873_a_at) / Fold change /veh OLFML3 (11715873_a_at) / RFU LOC100653217 /// NTM (11731650_a_at) / Fold change /veh LOC100653217 /// NTM (11731650_a_at) / RFU MAPK11 (11762145_a_at) / Fold change /veh MAPK11 (11762145_a_at) / RFU FIZ1 (11724087_x_at) / Fold change /veh FIZ1 (11724087_x_at) / RFU OASL (11726364_x_at) / Fold change /veh OASL (11726364_x_at) / RFU SOX15 (11748057_x_at) / Fold change /veh SOX15 (11748057_x_at) / RFU CD79A (11719716_a_at) / Fold change /veh CD79A (11719716_a_at) / RFU HIST1H1D (11736915_at) / Fold change /veh HIST1H1D (11736915_at) / RFU CASKIN2 (11723855_a_at) / Fold change /veh CASKIN2 (11723855_a_at) / RFU LOC730098 (11760151_x_at) / Fold change /veh LOC730098 (11760151_x_at) / RFU OR4N2 (11742367_at) / Fold change /veh OR4N2 (11742367_at) / RFU PRRT2 (11749266_a_at) / Fold change /veh PRRT2 (11749266_a_at) / RFU SNX32 (11753110_a_at) / Fold change /veh SNX32 (11753110_a_at) / RFU CDHR5 (11726645_a_at) / Fold change /veh CDHR5 (11726645_a_at) / RFU RCAN1 (11760418_a_at) / Fold change /veh RCAN1 (11760418_a_at) / RFU FAM167A (11723789_a_at) / Fold change /veh FAM167A (11723789_a_at) / RFU FAM26E (11764081_at) / Fold change /veh FAM26E (11764081_at) / RFU ISYNA1 (11749810_s_at) / Fold change /veh ISYNA1 (11749810_s_at) / RFU ACY1 (11761880_at) / Fold change /veh ACY1 (11761880_at) / RFU 11764098_at / Fold change /veh 11764098_at / RFU SAMD14 (11745864_x_at) / Fold change /veh SAMD14 (11745864_x_at) / RFU NPB (11741838_a_at) / Fold change /veh NPB (11741838_a_at) / RFU TMPRSS6 (11731388_a_at) / Fold change /veh TMPRSS6 (11731388_a_at) / RFU KRTAP10-2 (11738614_at) / Fold change /veh KRTAP10-2 (11738614_at) / RFU ARHGAP8 /// PRR5-ARHGAP8 (11727945_x_at) / Fold change /veh ARHGAP8 /// PRR5-ARHGAP8 (11727945_x_at) / RFU KRTAP5-7 /// NADSYN1 (11734609_at) / Fold change /veh KRTAP5-7 /// NADSYN1 (11734609_at) / RFU RASL12 (11751679_a_at) / Fold change /veh RASL12 (11751679_a_at) / RFU CDKN2B (11736163_a_at) / Fold change /veh CDKN2B (11736163_a_at) / RFU PRF1 (11729649_at) / Fold change /veh PRF1 (11729649_at) / RFU, ZNF638 /// ZNF638-IT1 / Fold change vs veh, ZNF638 /// ZNF638-IT1 / RFU, PANK3 / Fold change vs veh, PANK3 / RFU, SH3YL1 / Fold change vs veh, SH3YL1 / RFU, ZEB2 / Fold change vs veh, ZEB2 / RFU, NRIP1 / Fold change vs veh, NRIP1 / RFU, PTTG1IP / Fold change vs veh, PTTG1IP / RFU, CAPN2 / Fold change vs veh, CAPN2 / RFU, MED14 / Fold change vs veh, MED14 / RFU, SNORA58 / Fold change vs veh, SNORA58 / RFU, C1orf63 / Fold change vs veh, C1orf63 / RFU, LRRFIP1 / Fold change vs veh, LRRFIP1 / RFU, NDUFAF7 / Fold change vs veh, NDUFAF7 / RFU, SLC12A2 / Fold change vs veh, SLC12A2 / RFU, IBTK / Fold change vs veh, IBTK / RFU, ESF1 / Fold change vs veh, ESF1 / Fold change vs veh, TMEM50B / RFU, TAOK1 / Fold change vs veh, TAOK1 / RFU, ACBD3 / Fold change vs veh, ACBD3 / RFU, TMA16 / Fold change vs veh, TMA16 / RFU, RWDD3 / Fold change vs veh, RWDD3 / RFU, BCAT1 / Fold change vs veh, BCAT1 / RFU, EDEM3 / Fold change vs veh, EDEM3 / RFU, TMEM33 / Fold change vs veh, TMEM33 / RFU, WDR75 / Fold change vs veh, WDR75 / RFU, AHCTF1 / Fold change vs veh, AHCTF1 / RFU, TFRC / Fold change vs veh, TFRC / RFU, ZDHHC17 / Fold change vs veh, ZDHHC17 / RFU, NOM1 / Fold change vs veh, NOM1 / RFU, ARL8B / Fold change vs veh, ARL8B / RFU, ZBTB11 / Fold change vs veh, ZBTB11 / RFU, TAMM41 / Fold change vs veh, TAMM41 / RFU, KIAA1704 /// LOC100996395 / Fold change vs veh, KIAA1704 /// LOC100996395 / RFU, ING1 / Fold change vs veh, ING1 / RFU, TRMT61B / Fold change vs veh, TRMT61B / RFU, FUBP3 / Fold change vs veh, FUBP3 / RFU, TP53 / Fold change vs veh, TP53 / RFU, TNKS2 / Fold change vs veh, TNKS2 / RFU, ZFP14 / Fold change vs veh, ZFP14 / RFU, ACTR2 / Fold change vs veh, ACTR2 / RFU, PPP3R1 / Fold change vs veh, PPP3R1 / RFU, PIK3R1 / Fold change vs veh, PIK3R1 / RFU, HNRNPA1 / Fold change vs veh, HNRNPA1 / RFU, RNF170 / Fold change vs veh, RNF170 / RFU, ZNF28 / Fold change vs veh, ZNF28 / RFU, RNGTT / Fold change vs veh, RNGTT / RFU, OGT / Fold change vs veh, OGT / RFU, BRD1 / Fold change vs veh, BRD1 / RFU, MARS / Fold change vs veh, MARS / RFU, ZNF655 / Fold change vs veh, ZNF655 / RFU, FAHD1 / Fold change vs veh, FAHD1 / RFU, BDP1 / Fold change vs veh, BDP1 / RFU, LRRCC1 / Fold change vs veh, LRRCC1 / RFU, ARID1A / Fold change vs veh, ARID1A / RFU, ZNF146 / Fold change vs veh, ZNF146 / RFU, ZNF330 / Fold change vs veh, ZNF330 / RFU, GPN3 / Fold change vs veh, GPN3 / RFU, C9orf123 / Fold change vs veh, C9orf123 / RFU, N4BP2L2 / Fold change vs veh, N4BP2L2 / RFU, ARFIP1 / Fold change vs veh, ARFIP1 / RFU, FAM179B / Fold change vs veh, FAM179B / RFU, BCL10 / Fold change vs veh, BCL10 / RFU, UHRF1BP1L / Fold change vs veh, UHRF1BP1L / RFU, BET1 / Fold change vs veh, BET1 / RFU, CNOT2 / Fold change vs veh, CNOT2 / RFU, ZNF268 / Fold change vs veh, ZNF268 / Fold change vs veh, ZNF507 / RFU, DGCR2 / Fold change vs veh, DGCR2 / RFU, WDSUB1 / Fold change vs veh, WDSUB1 / Fold change vs veh, HSP90B1 /// MIR3652 / RFU, ADSS / Fold change vs veh, ADSS / RFU, GK / Fold change vs veh, GK / RFU, ZNF148 / Fold change vs veh, ZNF148 / RFU, TAF9 / Fold change vs veh, TAF9 / RFU, SLC1A5 / Fold change vs veh, SLC1A5 / RFU, SLMO2 / Fold change vs veh, SLMO2 / RFU, ABCC4 / Fold change vs veh, ABCC4 / RFU, LOC101060439 /// RAP1B / Fold change vs veh, LOC101060439 /// RAP1B / RFU, RFX7 / Fold change vs veh, RFX7 / RFU, GTPBP10 / Fold change vs veh, GTPBP10 / RFU, CNEP1R1 / Fold change vs veh, CNEP1R1 / RFU, BIVM-ERCC5 /// ERCC5 / Fold change vs veh, BIVM-ERCC5 /// ERCC5 / RFU, ILF3 / Fold change vs veh, ILF3 / RFU 11762660_at / Fold change /veh 11762660_at / RFU VCAN (11757783_s_at) / Fold change /veh VCAN (11757783_s_at) / RFU DDX43 (11728927_at) / Fold change /veh DDX43 (11728927_at) / RFU KRT8 (11758188_x_at) / Fold change /veh KRT8 (11758188_x_at) / RFU NKD1 (11759106_at) / Fold change /veh NKD1 (11759106_at) / RFU SRD5A1 (11742802_a_at) / Fold change /veh SRD5A1 (11742802_a_at) / RFU TPSAB1 /// TPSB2 (11721975_s_at) / Fold change /veh TPSAB1 /// TPSB2 (11721975_s_at) / RFU GSTM3 (11746129_a_at) / Fold change /veh GSTM3 (11746129_a_at) / RFU IL23R (11737362_x_at) / Fold change /veh IL23R (11737362_x_at) / RFU TMEM51 (11727254_a_at) / Fold change /veh TMEM51 (11727254_a_at) / RFU PIWIL2 (11732686_x_at) / Fold change /veh PIWIL2 (11732686_x_at) / RFU ORM1 (11744905_x_at) / Fold change /veh ORM1 (11744905_x_at) / RFU CCDC152 (11743942_at) / Fold change /veh CCDC152 (11743942_at) / RFU ECM1 (11717891_a_at) / Fold change /veh ECM1 (11717891_a_at) / RFU IL23R (11748794_a_at) / Fold change /veh IL23R (11748794_a_at) / RFU TNFAIP8L3 (11732012_x_at) / Fold change /veh TNFAIP8L3 (11732012_x_at) / RFU MBOAT4 (11741988_at) / Fold change /veh MBOAT4 (11741988_at) / RFU 11764193_at / Fold change /veh 11764193_at / RFU TMEM53 (11763286_at) / Fold change /veh TMEM53 (11763286_at) / RFU MAGEB2 (11727129_at) / Fold change /veh MAGEB2 (11727129_at) / RFU TMEM200A (11744735_a_at) / Fold change /veh TMEM200A (11744735_a_at) / RFU CCDC152 (11751479_a_at) / Fold change /veh CCDC152 (11751479_a_at) / RFU FAM211A (11726209_a_at) / Fold change /veh FAM211A (11726209_a_at) / RFU RGS16 (11746705_a_at) / Fold change /veh RGS16 (11746705_a_at) / RFU VCAN (11755009_s_at) / Fold change /veh VCAN (11755009_s_at) / RFU RHOB (11743442_s_at) / Fold change /veh RHOB (11743442_s_at) / RFU RGS16 (11720943_a_at) / Fold change /veh RGS16 (11720943_a_at) / RFU RGS16 (11720944_at) / Fold change /veh RGS16 (11720944_at) / RFU, VPS4B / Fold change vs veh, VPS4B / RFU, CREB1 / Fold change vs veh, CREB1 / RFU, DNAJC13 / Fold change vs veh, DNAJC13 / RFU, GNAQ / Fold change vs veh, GNAQ / RFU, CDK5R1 / Fold change vs veh, CDK5R1 / RFU, ZRANB3 / Fold change vs veh, ZRANB3 / RFU, CUL4A / Fold change vs veh, CUL4A / RFU, CCNY / Fold change vs veh, CCNY / RFU, UFL1 / Fold change vs veh, UFL1 / RFU, COG3 / Fold change vs veh, COG3 / RFU, DIAPH2 / Fold change vs veh, DIAPH2 / RFU, SKA2 / Fold change vs veh, SKA2 / RFU, AFF3 / Fold change vs veh, AFF3 / RFU, LMF1 / Fold change vs veh, LMF1 / RFU, IPO11 / Fold change vs veh, IPO11 / RFU, DFFB / Fold change vs veh, DFFB / RFU, FOXP1 / Fold change vs veh, FOXP1 / RFU, CARD8 / Fold change vs veh, CARD8 / RFU, STRN3 / Fold change vs veh, STRN3 / RFU, ADK / Fold change vs veh, ADK / RFU, RASSF2 / Fold change vs veh, RASSF2 / RFU, WIPF1 / Fold change vs veh, WIPF1 / RFU, LARP1B / Fold change vs veh, LARP1B / RFU, RASA1 / Fold change vs veh, RASA1 / RFU, RB1 / Fold change vs veh, RB1 / RFU, PPFIA1 / Fold change vs veh, PPFIA1 / RFU, MAT2A / Fold change vs veh, MAT2A / RFU, CCT5 / Fold change vs veh, CCT5 / RFU, WDR92 / Fold change vs veh, WDR92 / RFU, CUX1 / Fold change vs veh, CUX1 / RFU, TTC7A / Fold change vs veh, TTC7A / RFU, TMEM135 / Fold change vs veh, TMEM135 / RFU, DEPTOR / Fold change vs veh, DEPTOR / RFU, CPM / Fold change vs veh, CPM / RFU, DNAJB6 / Fold change vs veh, DNAJB6 / RFU, CACNA2D3 / Fold change vs veh, CACNA2D3 / RFU, DTX4 / Fold change vs veh, DTX4 / RFU, TFCP2 / Fold change vs veh, TFCP2 / RFU, GMCL1 /// GMCL1P1 / Fold change vs veh, GMCL1 /// GMCL1P1 / RFU, AEBP2 / Fold change vs veh, AEBP2 / RFU, SNHG1 /// SNORD22 /// SNORD25 /// SNORD26 /// SNORD27 /// SNORD28 /// SNORD29 /// SNORD31 / Fold change vs veh, SNHG1 /// SNORD22 /// SNORD25 /// SNORD26 /// SNORD27 /// SNORD28 /// SNORD29 /// SNORD31 / Fold change (Aza/veh), C12orf56 (ProbeSet 11735607_a_at) / Fold change (ACY-1035/veh), C12orf56 (ProbeSet 11735607_a_at) / Fold change (Aza/veh), FGFR1OP (ProbeSet 11751329_s_at) / Fold change (ACY-1035/veh), FGFR1OP (ProbeSet 11751329_s_at) / Fold change (Aza/veh), VPS36 (ProbeSet 11739960_a_at) / Fold change (ACY-1035/veh), VPS36 (ProbeSet 11739960_a_at) / RFU SYPL1 (11715823_x_at) / Fold change /veh SYPL1 (11715823_x_at) / RFU IGFBP7 (11715501_s_at) / Fold change /veh IGFBP7 (11715501_s_at) / RFU REEP3 (11722064_at) / Fold change /veh REEP3 (11722064_at) / RFU IGLL1 (11728026_x_at) / Fold change /veh IGLL1 (11728026_x_at): dose or concentration left out as unconfirmed
Conditions: ProbeSet 11740528_a_at; LIST D

## Nc1ccc(-c2cccs2)cc1NC(=O)c1ccc2c(c1)cc(C1CC1)n2CCN1CCOCC1 [ACY-1035]
  Fold change vs veh, AFF3: 0.95

— publication PMC5218480 (PLoS ONE, 2017)
